The source of these data is patent publication US5352599A, “Co-enzyme-independent L-sorbosone dehydrogenase of gluconobacter oxydans: isolation, characterization, and cloning and autologus expression of the gene” (Hoffmann-La Roche Inc., priority 1988, dated 1994).

The Km is the concentration of substrate that gives half-maximal velocity.

The target of data set [1] is T1, membrane-bound L-sorbosone dehydrogenase from Gluconobacter oxydans IFO 12258, purified, coenzyme independent (Gluconacetobacter liquefaciens, UniProt Q44091).
T1 construct: endogenous in cells; host or cells: Gluconobacter oxydans IFO 12258 (enzyme isolated from the strain itself)
T1 sequence (Q44091 1-449): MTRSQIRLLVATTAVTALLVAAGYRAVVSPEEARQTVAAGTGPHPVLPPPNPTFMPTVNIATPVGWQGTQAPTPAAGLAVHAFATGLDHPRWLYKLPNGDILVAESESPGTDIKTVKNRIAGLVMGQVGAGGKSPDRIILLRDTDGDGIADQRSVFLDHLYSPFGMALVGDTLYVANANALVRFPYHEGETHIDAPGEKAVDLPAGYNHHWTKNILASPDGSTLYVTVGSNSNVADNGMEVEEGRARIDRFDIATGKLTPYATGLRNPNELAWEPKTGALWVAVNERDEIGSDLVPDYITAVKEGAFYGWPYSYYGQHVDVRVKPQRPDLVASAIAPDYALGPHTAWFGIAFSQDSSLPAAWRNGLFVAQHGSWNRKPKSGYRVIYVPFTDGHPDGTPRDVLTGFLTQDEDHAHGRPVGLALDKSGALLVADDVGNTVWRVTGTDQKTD
Nature of the data set: L-sorbosone dehydrogenase enzyme assay (DCIP reduction at 600 nm, 25° C.). The class given is biochemical. As for the experimental part:
(§1) Enzyme assay was performed at 25° C. by measuring the decrease of absorbance at 600nm of DCIP spectrophotometrically. One unit of enzyme activity was defined as the amount of enzyme which catalyzed the reduction of 1 μmole of DCIP per minute.
(§2) The extinction coefficient of DCIP at pH 7.0 was taken as 9.45mM^-1. The basal reaction mixture is shown below. The mixture was prepared just before the assay.
(§3) A cuvette with 1cm light path contained 0.4ml of basal mixture, 20μl of 10mM phenazine methosulphate, 10μl of enzyme solution and 20μl of 110mM L-sorbosone solution in a final volume of 0.45ml. A reference cuvette contains all components except the substrate. The reaction was initiated by the addition of the substrate. Enzyme activity was measured as the initial reduction rate of DCIP.

Substrate in data set [2]: O=CC(=O)[C@@H](O)[C@H](O)[C@@H](O)CO
The data set is described as above. The settings on record: other: pH7.0, purified enzyme, pH 7.0. Type of data set: biochemical, Gluconobacter oxydans IFO 12258. As for the experimental part: as §1, §2, §3

On to `O=C(O)CI` [ICH2 COOH, Monoiodoacetic acid], for which the “inhibition of the enzyme (in words)” value in data set [1] was “moderately inhibited”. In data set [1] (read-out: Relative activity (%) in presence of inhibitor), the inhibition at 10000 µM is 64.3%.

For the molecule `[N-]=[N+]=[N-].[Na+]` [NaN3], in data set [1] (inhibitor 25 mM, L-Sorbosone as the substrate, None = 100), the “Relative activity (%) in presence of inhibitor” value is recorded as 89.4%.

B1: membrane-bound L-sorbosone dehydrogenase from Gluconobacter oxydans IFO 12258, purified, coenzyme independent (Gluconacetobacter liquefaciens) (protein)
chain: MTRSQIRLLVATTAVTALLVAAGYRAVVSPEEARQTVAAGTGPHPVLPPPNPTFMPTVNIATPVGWQGTQAPTPAAGLAVHAFATGLDHPRWLYKLPNGDILVAESESPGTDIKTVKNRIAGLVMGQVGAGGKSPDRIILLRDTDGDGIADQRSVFLDHLYSPFGMALVGDTLYVANANALVRFPYHEGETHIDAPGEKAVDLPAGYNHHWTKNILASPDGSTLYVTVGSNSNVADNGMEVEEGRARIDRFDIATGKLTPYATGLRNPNELAWEPKTGALWVAVNERDEIGSDLVPDYITAVKEGAFYGWPYSYYGQHVDVRVKPQRPDLVASAIAPDYALGPHTAWFGIAFSQDSSLPAAWRNGLFVAQHGSWNRKPKSGYRVIYVPFTDGHPDGTPRDVLTGFLTQDEDHAHGRPVGLALDKSGALLVADDVGNTVWRVTGTDQKTD
notes: endogenous in cells; host or cells: Gluconobacter oxydans IFO 12258 (enzyme isolated from the strain itself)
B1: in data set [2], the Km was 16.7 mM.
